In patent US20250381180A1, “METHODS OF TREATING OR PREVENTING OVERACTIVE BLADDER SYNDROME” (Purdue Pharma L.P., priority 2022, published 2025):
Entries after “also recorded” stand apart in the source; their conditions may differ.

Tests used:
[1] = Urine concentrations in humans after a single oral dose; type: in vivo, human; details: see Example 2
conscious SCI rats [2] = details: Beauval et al., 2015; cited from earlier work
conscious SCI rats [3] = experiment: Cystometric parameters in conscious spinal cord injury (SCI) rats; type: in vivo, rat; details: i.g., Cpd (IA) 30 mg/kg, mirabegron 10 mg/kg
Method: Test substance effects were compared to those of the reference substance, the β3-adrenoceptor agonist mirabegron, marketed for overactive bladder.
• At W-5, spinal cord injury was performed at T8 level as described below. • Over W-5, rats were treated daily with gentamicin. • Over W-5 and W-4, bladder was emptied manually once a day. • From W-5 to W0, animals were weighed once per week. • At D-2 (W0), implantation of catheters was performed under isoflurane anaesthesia as described below. • At D0 (W0), cystometry was performed
Rats were anesthetized with isoflurane (3%). Body temperature was constantly maintained at 37° C. throughout the surgery by placing animals on a thermo-regulated hot plate. A laminectomy was performed and the spinal cord was sectioned with microscissors at T8 level. Care was taken to assure that the section was complete by verifying that a slight retraction of the two segments occurred. Then the muscle was sutured and the skin fixed with staples. The scar was cleaned by Vetedine. For the Sham group, the same surgery was performed without section of the spinal cord.
The urinary bladder was squeezed once a day for 14 days with a gentle massage of the abdomen until restoration of the micturition reflex. In addition, they were administered intramuscularly daily for one week with gentamicin (2 mg/mL, 0.2 ml/rat). Animals were euthanized if they reached humane endpoints: weight loss of greater than 20% of their body weight and/or abnormal behavioral changes indicating presence of pain and distress (prostration, self-mutilation, aggressiveness).
Rats were anesthetized with isoflurane (3%). Body temperature was constantly maintained at 37° C. throughout the surgery by placing animals on a thermo-regulated hot plate. A polyethylene catheter (0.58 and 0.96 mm of inner and outer diameters, respectively) was implanted in the bladder through the dome for intravesical pressure recording. Another catheter (0.58 and 0.96 mm of inner and outer diameters, respectively) was implanted in the stomach for intra-gastric administration. Catheters were exteriorized at the scapular level. After surgery, each rat was housed individually up to the end of the protocol with free access to food and water.
Animals were held under partial restraint in a restraining device. Saline was infused into the bladder at a constant flow rate of 2 or 6 mL/h for sham or SCI rats, respectively. After at least 45 min (3 complete micturition cycles corresponding to basal values), test substances were administered by intra-gastric route. Then, intravesical pressure was recorded for 90 min.
The following cystometric parameters were analyzed (see FIG. 10): • Amplitude of micturition (AM, mmHg). • Threshold pressure (ThP, mmHg). • Intercontraction interval (ICI, sec): time between basal pressure and ThP. ICI was not presented due to different infusion rate in sham and SCI rats. ICI was only analyzed to calculate the bladder capacity. • Bladder capacity (BC, mL) BC=ICI×infusion rate. • Amplitude of non voiding contractions (NVC, mmHg) • Frequency of NVC (number per min).
For each cystometric parameter and for each time period, the comparisons were performed as described below: • Basal values of each cystometric parameter of Sham/Vehicle and SCI/Vehicle groups were compared using unpaired student t test • Basal values of each cystometric parameter of all SCI groups were compared using one-way ANOVA or Kruskal-Wallis test • The 3 interval periods of 30 min post treatment of each cystometric parameter within the same group were compared to corresponding basal values using one-way ANOVA with repeated measures or Friedman test followed by Dunnett's or Dunn's post-test, respectively. • The 3 interval periods of 30 min post treatment of each cystometric parameter were compared between all SCI groups using one-way ANOVA or Kruskal Wallis test followed by Holm-Sidak's or Dunn's post-test versus Vehicle, respectively.

conscious BOO rats [4] = details: Gillespy et al., 2012; cited from earlier work
conscious BOO rats [5] = experiment: Cystometric parameters in conscious bladder outlet obstruction (BOO) rats; type: in vivo, rat; details: i.g.; for BC, effect versus basal: Cpd (IA) 30 mg/kg, mirabegron 10 mg/kg
Method: Test substance effects were compared to those of the reference substance, mirabegron, marketed for overactive bladder.
• At W-6, a partial ligature of the urethra was performed. • At W-6, during 3 consecutive days, rats were treated daily with gentamycin and Ketofen® The bladder was emptied manually once a day. • From W-6 to W-1 animals were monitored and weighed once per week. • At W0 (D-2), catheters were implanted under isoflurane anesthesia. • At D0, cystometry was performed.
Appropriate amount of Cpd (IA) was weighed and dissolved in vehicle to obtain the dosing solution with the target concentration of 3 mg/mL (as free base). […]
[…] Mirabegron (from Kemprotec) was prepared fresh on the day of administration at a final concentration of 2 mg/mL (free base form). Appropriate mass of mirabegron was weighed and dissolved in vehicle (0.5% MC) at room temperature.

[6] = tested on: rhythmic bladder contractions (RBC) in anesthetized female rats; experiment: Isovolumetric model: rhythmic bladder contractions (RBC), cystometry; type: in vivo, rat; details: for RBC amplitude, basal / RBC frequency, basal: basal period −30/0 min before i.v. administration, group mean
Excerpt: In rats, under isovolumetric condition, bladder distension induced rhythmic bladder contractions (RBC) (Aizawa et al, (2015) Effects of L-arginine, mirabegron, and oxybutynin on the primary bladder afferent nerve activities synchronized with reflexic, rhythmic bladder contractions in the rat. Neurourology & Urodynamics 34:368-374). This isovolumetric model allows the evaluation of compound on RBC. It is a closed system where the bladder is slowly infused through a urethral catheter with saline until the occurrence of spontaneous rhythmic bladder contractions.
Test substance effects were compared to that of the reference substance, tolterodine, an […], marketed for overactive bladder in humans.
Protocol: • Animals were anesthetized with urethane (i.p.). • Ureters were ligated and sectioned close to the kidneys. • Intravesical catheter was inserted into the bladder though the urinary meatus. • Urinary meatus was closed. • A catheter was inserted into the jugular vein for compound administration. • Bladder was filled with saline until the occurrence of RBC. • After 30 min basal period, compounds were administered as described below. • The effect of the test substances was followed by 1-hour post administration.
Rats were anesthetized with an intraperitoneal administration of urethane (1 g/kg). The ureters were ligated and sectioned close to the kidneys. A catheter (0.30 and 0.70 mm of inner and outer diameters, respectively) was inserted through the urinary meatus into the bladder before urethral ligature. Another catheter (0.58 and 0.96 mm of inner and outer diameters, respectively) was inserted into the jugular vein for intravenous (i.v.) administration.
For all group, animals were treated by i.v. route (1 mL/kg) (slow bolus) after the basal period.
The vesical catheter was connected via a T-tube to a strain gauge (to measure intra-vesical pressure) and to a syringe. Isovolumetric bladder contractions were induced by stepwise injections of physiological saline at room temperature (100 μL every 5 min) until stable RBC occurred. Vesical pressure was continuously recorded. After a 30 min control period (basal values), substances or vehicle were i.v. administered. The effects of substances were followed during 60 min after administration. At the end of the experiments, animals were sacrificed by cervical dislocation.
The following parameters were analyzed: • Amplitude of RBC (mmHg) • Frequency of RBC (number/30 min) • Time of inhibition (sec)
The % variation from the basal values were calculated for RBC frequency and amplitude.
Statistical analysis and graphs were performed using GraphPad Prism® (GraphPad Software Inc., La Jolla, CA, USA). A p value <0.05 was accepted for statistical significance.

[7] = 0/60 min after i.v., Cpd (IA) 3 mg/kg (n=8), tolterodine 1 mg/kg, mean
[8] = 0/60 min after i.v., Cpd (IA) 3 mg/kg, tolterodine 1 mg/kg, mean
[9] = 0/60 min after i.v., Cpd (IA) 3 mg/kg, tolterodine 1 mg/kg, mean, listed as Tolterodine
[10] = i.v., Cpd (IA) 3 mg/kg, tolterodine 1 mg/kg, vs basal
[11] = i.v., Cpd (IA) 3 mg/kg, tolterodine 1 mg/kg, vs vehicle

O=C(O)c1nc2ccccc2n([C@H]2C[C@H]3CCC[C@@H](C2)N3C2CC3CCCC(C3)C2)c1=O (single isomer, unassigned) [compound of formula (I′)]
route of excretion [1]: primarily excreted from the urine largely unchanged

C[C@H](Cc1ccc2c(c1)OC(C(=O)[O-])(C(=O)[O-])O2)NC[C@H](O)c1cccc(Cl)c1.[Na+].[Na+] [CL-316,243]
bladder capacity (conscious SCI rats [2]): significantly increase | frequency of NVC (conscious SCI rats [2]): reduce

Nc1nc(CC(=O)Nc2ccc(CCNC[C@H](O)c3ccccc3)cc2)cs1 [mirabegron, reference compound]
AM (amplitude of micturition), effect versus basal (conscious SCI rats [3]): did not significantly modify | AM (mmHg and % variation), effect versus vehicle (conscious SCI rats [3]): not significantly modified | BC expressed in % variation from basal, effect versus vehicle (conscious SCI rats [3]): not significantly modified | BC expressed in mL, effect versus vehicle (conscious SCI rats [3]): no significant difference | NVC amplitude (mmHg or % variation), effect versus vehicle (conscious SCI rats [3]): not significantly modified | NVC amplitude, effect versus basal (conscious SCI rats [3]): did not significantly modified | NVC frequency (NVC/min and % variation), effect versus vehicle (conscious SCI rats [3]): not significantly modified | NVC frequency, effect versus basal (conscious SCI rats [3]): significantly decreased NVC frequency for the 30-60 and 60-90 min interval periods; also recorded: slightly but significantly decreased | ThP (mmHg and % variation), effect versus vehicle (conscious SCI rats [3]): not significantly modified | ThP (threshold pressure), effect versus basal (conscious SCI rats [3]): significantly decreased ThP for the 60-90 min post-administration interval period | BC (bladder capacity), effect versus basal (conscious SCI rats [3]; 30-min interval periods to 90 min): did not significantly modify | frequency of NVC (conscious BOO rats [4]): reduces | AM (mmHg or % variation), effect versus vehicle (conscious BOO rats [5]; 0-90 min entire period): not significantly modified | AM, effect versus basal (conscious BOO rats [5]; 0-90 min entire period): did not significantly modify | BC expressed in % variation from basal, effect versus vehicle (conscious BOO rats [5]; 0-90 min entire period): not significantly modified | BC expressed in mL, effect versus vehicle (conscious BOO rats [5]; 0-90 min entire period): no significant difference | NVC amplitude expressed in % variation from basal, effect versus vehicle (conscious BOO rats [5]; 0-90 min entire period): significantly reduced | NVC amplitude expressed in mmHg, effect versus vehicle (conscious BOO rats [5]; 0-90 min entire period): not significantly modified | NVC amplitude, effect versus basal (conscious BOO rats [5]; 0-90 min entire period): did not modify | NVC frequency (NVC/min or % variation), effect versus vehicle (conscious BOO rats [5]; 0-90 min entire period): not significantly modified | NVC frequency, effect versus basal (conscious BOO rats [5]; 0-90 min entire period): significantly decreased | ThP expressed in % variation from basal, effect versus vehicle (conscious BOO rats [5]; 0-90 min entire period): no significant effect | ThP expressed in mmHg, effect versus vehicle (conscious BOO rats [5]; 0-90 min entire period): not significantly modified | ThP, effect versus basal (conscious BOO rats [5]; 0-90 min entire period): did not modify | AM (mmHg or % variation), effect versus vehicle (conscious BOO rats [5]; 60-90 min interval period): no effect | AM, effect versus basal (conscious BOO rats [5]; 60-90 min interval period): did not significantly modify | BC expressed in % variation from basal, effect versus vehicle (conscious BOO rats [5]; 60-90 min interval period): no significant difference | BC expressed in mL, effect versus vehicle (conscious BOO rats [5]; 60-90 min interval period): no significant difference | NVC amplitude expressed in % variation from basal, effect versus vehicle (conscious BOO rats [5]; 60-90 min interval period): significantly decreased | NVC amplitude expressed in mmHg, effect versus vehicle (conscious BOO rats [5]; 60-90 min interval period): not significantly modified | NVC amplitude, effect versus basal (conscious BOO rats [5]; 60-90 min interval period): significantly reduced | NVC frequency (NVC/min or % variation), effect versus vehicle (conscious BOO rats [5]; 60-90 min interval period): unaffected | NVC frequency, effect versus basal (conscious BOO rats [5]; 60-90 min interval period): significantly decreased | ThP expressed in % variation from basal, effect versus vehicle (conscious BOO rats [5]; 60-90 min interval period): significantly decreased | ThP expressed in mmHg, effect versus vehicle (conscious BOO rats [5]; 60-90 min interval period): not significantly modified | ThP, effect versus basal (conscious BOO rats [5]; 60-90 min interval period): without effect | BC, effect versus basal (conscious BOO rats [5]; 0-90 min entire period): did not significantly modify | BC, effect versus basal (conscious BOO rats [5]; 60-90 min interval period): significantly increased

Cc1ccc(O)c([C@H](CCN(C(C)C)C(C)C)c2ccccc2)c1 [tolterodine]
RBC amplitude, % variation from basal [6, 7]: −30.83±5.24% | RBC amplitude, treated period [6, 7]: 18.56 mmHg | RBC amplitude, % variation from basal ([6]; 0/60 min after i.v., Cpd (IA) 3 mg/kg (n=8), tolterodine 1 mg/kg, mean, listed as Tolterodine): −30.83% | RBC frequency, % variation from basal [6, 8]: −33.93±10.93% | RBC frequency, treated period [6, 8]: 15.30±2.72 nb of RBC/30 min | RBC frequency, % variation from basal [6, 9]: −33.93% | RBC frequency, treated period [6, 9]: 15.30 nb of RBC/30 min | Inhibition time ([6]; after i.v., Cpd (IA) 3 mg/kg, tolterodine 1 mg/kg, mean): 87.04 s | RBC amplitude, basal [6]: 27.22±2.03 mmHg | RBC frequency, basal [6]: 23.00±0.87 nb of RBC/30 min | RBC amplitude, basal ([6]; listed as Tolterodine): 27.22 mmHg | RBC frequency, basal ([6]; listed as Tolterodine): 23.00 nb of RBC/30 min | bladder afferent activity ([6]; conclusion of Example 1): no effect | bladder efferent activity ([6]; conclusion of Example 1): effectively inhibited | RBC amplitude, effect versus basal [6, 10]: significantly reduced | RBC frequency, effect versus basal [6, 10]: significantly decreased | RBC amplitude (% variation), effect versus vehicle [6, 11]: significantly reduced | RBC frequency (% variation), effect versus vehicle [6, 11]: did not significantly modify | time of inhibition, effect versus vehicle [6, 11]: no significant difference

O=C(O)c1nc2ccccc2n(C2CC3CCCC(C2)N3C2CC3CCCC(C3)C2)c1=O (stereo not shown) [compound of formula (I)]
route of excretion [1]: primarily excreted from the urine largely unchanged
